Laboratory results as given in ChEMBL document CHEMBL1145163, “Structure-based design, synthesis, and memapsin 2 (BACE) inhibitory activity of carbocyclic and heterocyclic peptidomimetics” (J Med Chem, 2005).
Starred links: 1 amine or outer side, 2 acyl side, 3 side chain; linkers in the order of their positions; H or OH if unused. Non-standard residues stand in square brackets, D forms with d. Residues, ends and D or L forms follow the SMILES beside them. LeuΨ(S-CHOHCH2)Ala = CC(C)C[C@H](N[*:1])[C@@H](O)C[C@@H](C)C(=O)[*:2]; X1 = CC(C)C[C@H](N[*:1])[C@@H](O)[C@@H]1CCC[C@H]1C(=O)[*:2]

Legend:
[1] = biological target: T1, Cathepsin D (Homo sapiens, UniProt P07339); assay: Inhibitory concentration against human Cathepsin D
[2] = biological target: T2, Beta-secretase 1 (Homo sapiens, UniProt P56817); assay: Inhibitory concentration against human Membrane-associated aspartic protease 2
[3] = biological target: T1, Cathepsin D; assay: Inhibitory activity against human Cathepsin D at 0.01 uM
[4] = biological target: T2, Beta-secretase 1; assay: Inhibitory activity against human beta-site APP-cleaving enzyme 1 at 0.01 uM

T1 sequence (P07339 65-162 limits assumed): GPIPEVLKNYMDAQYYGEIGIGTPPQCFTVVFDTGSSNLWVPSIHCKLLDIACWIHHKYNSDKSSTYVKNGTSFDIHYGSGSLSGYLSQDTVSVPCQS
T1 sequence (P07339 169-412 limits assumed): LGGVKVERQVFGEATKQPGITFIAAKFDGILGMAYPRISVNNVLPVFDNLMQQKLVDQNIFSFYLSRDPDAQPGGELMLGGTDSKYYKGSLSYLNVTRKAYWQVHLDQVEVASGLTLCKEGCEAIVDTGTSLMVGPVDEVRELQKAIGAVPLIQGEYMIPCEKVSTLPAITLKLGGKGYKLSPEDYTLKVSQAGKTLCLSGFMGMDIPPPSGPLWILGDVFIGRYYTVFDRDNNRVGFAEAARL
T2 sequence (P56817 whole entry): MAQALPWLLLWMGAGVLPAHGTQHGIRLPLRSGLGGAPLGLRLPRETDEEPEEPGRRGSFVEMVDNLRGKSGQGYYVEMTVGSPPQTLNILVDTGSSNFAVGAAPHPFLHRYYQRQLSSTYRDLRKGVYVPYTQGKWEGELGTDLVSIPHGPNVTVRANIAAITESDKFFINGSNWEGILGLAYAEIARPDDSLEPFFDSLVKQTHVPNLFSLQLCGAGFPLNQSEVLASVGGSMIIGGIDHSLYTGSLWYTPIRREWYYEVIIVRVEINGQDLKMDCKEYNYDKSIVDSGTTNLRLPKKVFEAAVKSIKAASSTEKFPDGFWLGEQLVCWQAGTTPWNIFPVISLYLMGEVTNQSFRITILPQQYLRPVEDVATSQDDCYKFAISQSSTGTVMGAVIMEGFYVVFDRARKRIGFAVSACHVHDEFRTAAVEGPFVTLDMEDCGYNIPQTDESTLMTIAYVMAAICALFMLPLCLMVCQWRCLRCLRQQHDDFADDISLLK

Row | Compound | IC50 [1] | IC50 [2] | inhibition [3] | inhibition [4]
1 | CSCC[C@H](NC(=O)[C@H](CC(C)C)NC(C)=O)C(=O)N[C@@H](CC(C)C)[C@@H](O)[C@@H]1CC(=O)C[C@H]1C(=O)N[C@@H](C)C(=O)O | 1500 nM | 720 nM |  | 
2 | CCCCNC(=O)[C@H](C)NC(=O)[C@@H]1CCC[C@H]1[C@H](O)[C@H](CC(C)C)NC(=O)[C@H](CCSC)NC(=O)[C@H](CC(C)C)NC(C)=O | < 10 nM | 185 nM | 95% | 
3 | CC(C)C[C@H](NC(=O)[C@H](CC(N)=O)NC(=O)[C@@H](NC(=O)[C@@H](N)CCC(=O)O)C(C)C)[C@@H](O)[C@@H]1CCC[C@H]1C(=O)N[C@@H](C)C(=O)O (H-EVN[X1]A-OH) | 6000 nM |  |  | 
4 | C=C1C[C@@H]([C@H](O)[C@H](CC(C)C)NC(=O)[C@H](CCSC)NC(=O)[C@H](CC(C)C)NC(C)=O)[C@H](C(=O)N[C@@H](C)C(=O)O)C1 | 430 nM | > 10000 nM |  | 
5 | CC(C)C[C@H](NC(=O)[C@H](CC(N)=O)NC(=O)[C@@H](NC(=O)[C@@H](N)CCC(=O)O)C(C)C)[C@@H](O)C[C@@H](C)C(=O)N[C@@H](C)C(=O)O (H-EVN[LeuΨ(S-CHOHCH2)Ala]A-OH) | 98 nM | 12 nM |  | 
6 | CC(C)C[C@H](NC(=O)[C@H](CC(N)=O)NC(=O)[C@@H](NC(=O)[C@@H](N)CCC(=O)O)C(C)C)[C@@H](O)[C@@H]1CCC[C@H]1C(=O)N[C@@H](C)C(=O)N[C@@H](CCC(=O)O)C(=O)N[C@@H](Cc1ccccc1)C(=O)O [CARBOCYCLIC PEPTIDOMIMETIC] (H-EVN[X1]AEF-OH) | < 10 nM | 16 nM | 90% | 
7 | CCCCNC(=O)[C@@H]1CCC[C@H]1[C@H](O)[C@H](CC(C)C)NC(=O)[C@H](CCSC)NC(=O)[C@H](CC(C)C)NC(C)=O | 60 nM | 1820 nM |  | 
8 | CSCC[C@H](NC(=O)[C@H](CC(C)C)NC(C)=O)C(=O)N[C@@H](CC(C)C)[C@@H](O)[C@@H]1CCC[C@H]1C(=O)N[C@@H](C)C(=O)O | 90 nM | 60 nM |  | 
9 | CCCCNC(=O)[C@@H](NC(=O)[C@@H]1OCC[C@H]1[C@H](O)[C@H](CC(C)C)NC(=O)[C@H](CCSC)NC(=O)[C@H](CC(C)C)NC(C)=O)C(C)C | 280 nM | 9560 nM |  | 
10 | CC(C)C[C@H](NC(=O)[C@H](CC(N)=O)NC(=O)[C@@H](NC(=O)[C@@H](N)CCC(=O)O)C(C)C)[C@@H](O)C[C@@H](C)C(=O)N[C@@H](C)C(=O)N[C@@H](CCC(=O)O)C(=O)N[C@@H](Cc1ccccc1)C(=O)O (H-EVN[LeuΨ(S-CHOHCH2)Ala]AEF-OH) | 6 nM |  |  | 
11 | CC(C)C[C@H](NC(=O)[C@H](CC(N)=O)NC(=O)[C@@H](NC(=O)[C@@H](N)CCC(=O)O)C(C)C)[C@@H](O)[C@@H]1CCC[C@H]1C(=O)N[C@@H](C)C(=O)N[C@@H](CCC(=O)O)C(=O)O (H-EVN[X1]AE-OH) | 60 nM | 40 nM |  | 
12 | CSCC[C@H](NC(=O)[C@H](CC(C)C)NC(C)=O)C(=O)N[C@@H](CC(C)C)[C@@H](O)[C@@H]1CCC[C@H]1C(=O)N[C@H](C(=O)O)C(C)C | 25 nM | 190 nM |  | 

Now from value to compound:

Row | IC50 [1] | IC50 [2] | inhibition [3] | inhibition [4] | Compound
13 | 1230 nM | 3440 nM |  |  | CCCCNC(=O)[C@@H](NC(=O)[C@@H]1CN(C)C[C@H]1[C@H](O)[C@H](CC(C)C)NC(=O)[C@H](CCSC)NC(=O)[C@H](CC(C)C)NC(C)=O)C(C)C
14 | 56 nM |  |  |  | CCCCNC(=O)[C@@H](NC(=O)[C@@H]1CC(=O)C[C@H]1[C@H](O)[C@H](CC(C)C)NC(=O)[C@H](CCSC)NC(=O)[C@H](CC(C)C)NC(C)=O)C(C)C
15 | 70 nM | < 10 nM |  | 79% | CCCCNC(=O)[C@@H](NC(=O)[C@H]1[C@H]([C@H](O)[C@H](CC(C)C)NC(=O)[C@H](CCSC)NC(=O)[C@H](CC(C)C)NC(C)=O)CC(=O)N1C)C(C)C
16 | < 10 nM | 25 nM | 100% |  | CCCCNC(=O)[C@@H](NC(=O)[C@@H]1CCC[C@H]1[C@H](O)[C@H](CC(C)C)NC(=O)[C@H](CCSC)NC(=O)[C@H](CC(C)C)NC(C)=O)C(C)C
17 | 130 nM | 3350 nM |  |  | CCCCNC(=O)[C@@H](NC(=O)[C@@H]1C(=O)N(CC)C[C@H]1[C@H](O)[C@H](CC(C)C)NC(=O)[C@H](CCSC)NC(=O)[C@H](CC(C)C)NC(C)=O)C(C)C
